Here are results for one molecule from ChEMBL document CHEMBL4616634, “4β-Hydroxywithanolide E from Goldenberry (Whole Fruits of Physalis peruviana L.) as a Promising Agent against Chronic Obstructive Pulmonary Disease” (J Nat Prod, 2020).

The target in series [1] is T1, Nuclear factor erythroid 2-related factor 2 (Mus musculus) (UniProt Q60795).
T1 sequence (whole entry): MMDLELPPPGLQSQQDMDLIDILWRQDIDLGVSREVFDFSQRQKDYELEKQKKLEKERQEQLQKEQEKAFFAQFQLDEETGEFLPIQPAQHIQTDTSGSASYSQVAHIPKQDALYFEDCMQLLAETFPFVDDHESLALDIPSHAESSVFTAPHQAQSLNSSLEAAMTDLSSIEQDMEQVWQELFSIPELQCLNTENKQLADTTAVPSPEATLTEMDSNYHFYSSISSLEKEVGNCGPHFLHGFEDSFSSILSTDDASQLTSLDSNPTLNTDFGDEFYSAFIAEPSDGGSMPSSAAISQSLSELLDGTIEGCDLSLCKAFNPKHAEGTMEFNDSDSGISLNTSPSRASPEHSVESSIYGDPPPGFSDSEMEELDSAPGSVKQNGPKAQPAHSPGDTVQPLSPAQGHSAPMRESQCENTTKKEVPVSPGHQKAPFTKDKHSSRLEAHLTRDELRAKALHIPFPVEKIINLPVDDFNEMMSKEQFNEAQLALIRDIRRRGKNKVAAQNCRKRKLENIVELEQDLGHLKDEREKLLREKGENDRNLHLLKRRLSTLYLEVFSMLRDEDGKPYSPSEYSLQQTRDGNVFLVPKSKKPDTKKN
As to the kind of experiment: Activation of Nrf2 in mouse Hepa1c1c7 cells assessed as increase in quinone reductase activity incubated for 24 hrs by MTT based assay. The format is cell-based.

Series [2] has as its target T2, Nuclear factor erythroid 2-related factor 2 (Homo sapiens) (UniProt Q16236).
T2 sequence (whole entry): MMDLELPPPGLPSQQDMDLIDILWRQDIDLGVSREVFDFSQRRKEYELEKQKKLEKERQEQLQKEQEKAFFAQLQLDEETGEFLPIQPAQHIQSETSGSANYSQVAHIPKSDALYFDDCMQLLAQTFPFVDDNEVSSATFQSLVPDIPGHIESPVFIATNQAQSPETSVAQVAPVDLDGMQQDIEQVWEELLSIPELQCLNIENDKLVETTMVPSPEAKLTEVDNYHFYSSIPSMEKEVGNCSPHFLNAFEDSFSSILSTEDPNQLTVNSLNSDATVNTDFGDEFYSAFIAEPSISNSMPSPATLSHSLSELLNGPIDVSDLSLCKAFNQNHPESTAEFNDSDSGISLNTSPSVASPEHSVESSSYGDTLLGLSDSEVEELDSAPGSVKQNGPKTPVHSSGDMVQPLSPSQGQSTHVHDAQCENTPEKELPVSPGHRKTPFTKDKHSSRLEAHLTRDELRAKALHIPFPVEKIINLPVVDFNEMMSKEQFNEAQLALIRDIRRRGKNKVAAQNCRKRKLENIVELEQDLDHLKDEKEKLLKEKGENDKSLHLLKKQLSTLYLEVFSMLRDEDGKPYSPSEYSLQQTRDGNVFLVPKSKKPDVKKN
As to the kind of experiment: Activation of Nrf2 in human MDA-MB-231 cells assessed as increase in ARE luciferase activity at 0.13 to 2 uM incubated for 16 hrs by luciferase reporter gene assay. Format: cell-based. On the technique in general: A reporter such as luciferase makes a cellular process visible.

The target of series [3] is T2, Nuclear factor erythroid 2-related factor 2 (Homo sapiens). The series is described as follows: Activation of Nrf2 in human MDA-MB-231 cells assessed as increase in luciferase activity incubated for 16 hrs by dual luciferase reporter gene assay. The format is cell-based.
Series [4] shares this target. As to the kind of experiment: Activation of Nrf2 in human MDA-MB-231 cells assessed as increase in NQO1 protein level at 0.5 uM incubated for 16 hrs by immunoblot analysis. Format: cell-based. (In general: Immunoblotting shows a protein as a band on a membrane.)
Another series concerns BEAS-2B. As to the kind of experiment: Cytotoxicity against human BEAS2B cells assessed as decrease in cell viability at < 12.5 uM after 24 hrs by MTT assay. Format: cell-based.
Series [5] deals with T2, Nuclear factor erythroid 2-related factor 2 (Homo sapiens). The series is described as follows: Activation of Nrf2 in human BEAS2B cells assessed as increase in GCLM protein expression incubated for 12 hrs by immunoblot analysis. Format: cell-based.
Series [6] shares this target. The series is described as follows: Activation of Nrf2 in human BEAS2B cells assessed as increase in KEAP1 protein expression at 0.25 to 2 uM incubated for 12 hrs by immunoblot analysis. Format: cell-based.
Series [7] shares this target. As to the kind of experiment: Stabilization of Nrf2 in human BEAS2B cells harboring (HA)-ubiquitin assessed as suppression of Nrf2 ubiquitination at 1 uM after 8 hrs in presence of MG132 by immunoblot analysis. The format is cell-based.
The target is the same in series [8]. The series is described as follows: Activation of Nrf2 in human BEAS2B cells assessed as increase in Keap1 protein expression at 5 uM incubated for 24 hrs by immunoblot analysis. The format is cell-based.
For series [9] the target is unchanged. As to the kind of experiment: Activation of Nrf2 in human BEAS2B cells harboring wild type Keap1 assessed as increase in Nrf2 protein expression at 2 uM after12 hrs in presence of Keap1-siRNA by immunoblot analysis. Format: cell-based.
Series [10] has the same target. The series is described as follows: Activation of Nrf2 in human BEAS2B cells harboring Keap1-C151S mutant assessed as increase in Nrf2 protein expression at 2.5 uM after12 hrs in presence of Keap1-siRNA by immunoblot analysis. The format is cell-based.
The target is the same in series [11]. The series is described as follows: Activation of Nrf2 in human BEAS2B cells harboring Keap1-C288S mutant assessed as increase in Nrf2 protein expression at 2.5 uM after12 hrs in presence of Keap1-siRNA by immunoblot analysis. Format: cell-based.
Series [12] deals with Transcription factor p65 (Mus musculus) (UniProt Q04207). As to the kind of experiment: Inhibition of LPS-induced NFkappaB p65 nucleus translocation in mouse RAW264.7 cells at 2 uM pre-incubated for 1 hr followed by LPS-stimulation and measured after 1 hr by immunoblot analysis. Format: cell-based.
Chain of Transcription factor p65 (Mus musculus) (Q04207 whole entry): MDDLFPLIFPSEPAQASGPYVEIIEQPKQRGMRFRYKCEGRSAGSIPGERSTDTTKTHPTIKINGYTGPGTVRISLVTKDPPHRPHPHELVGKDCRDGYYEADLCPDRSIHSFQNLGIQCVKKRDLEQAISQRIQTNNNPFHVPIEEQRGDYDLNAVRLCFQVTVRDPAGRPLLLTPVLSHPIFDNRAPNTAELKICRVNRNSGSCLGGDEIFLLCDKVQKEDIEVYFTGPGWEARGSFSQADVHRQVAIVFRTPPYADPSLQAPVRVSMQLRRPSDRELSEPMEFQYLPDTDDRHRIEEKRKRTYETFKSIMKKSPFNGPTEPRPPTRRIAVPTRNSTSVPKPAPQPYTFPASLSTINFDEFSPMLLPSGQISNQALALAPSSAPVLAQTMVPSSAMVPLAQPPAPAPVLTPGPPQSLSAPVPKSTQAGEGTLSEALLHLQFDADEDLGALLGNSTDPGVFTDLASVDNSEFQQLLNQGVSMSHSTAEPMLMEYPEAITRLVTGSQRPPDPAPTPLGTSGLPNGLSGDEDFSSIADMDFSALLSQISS
Series [13] deals with RAW264.7. As to the kind of experiment: Inhibition of LPS-induced NFkappaB activation in mouse RAW264.7 cells assessed as increase in IKBalpha protein expression at 0.5 to 4 uM pre-incubated for 1 hr followed by LPS-stimulation and measured after 2 hrs by immunoblot analysis. Format: cell-based.
The test system of series [14] is RAW264.7. As to the kind of experiment: Inhibition of LPS-induced IL-6 protein expression in mouse RAW264.7 cells at 0.5 to 4 uM preincubated for 1 hr followed by LPS-stimulation and measured after 16 hrs by immunoblot analysis. The format is functional, cell-based.
For series [15], the system named is RAW264.7. The series is described as follows: Inhibition of LPS-induced IL-1beta mRNA expression in mouse RAW264.7 cells at 0.5 to 4 uM preincubated for 1 hr followed by LPS-stimulation and measured after 6 hrs by qRT-PCR analysis. Format: functional, cell-based. In general terms: In qPCR the cycle at which signal appears reflects the starting amount.
In series [16] the test system is Mus musculus. As to the kind of experiment: Antiinflammatory activity in C57BL/6 mouse model of CS-induced pulmonary injury assessed as reduction in thickening of the alveolar septa in lungs at 2 to 4 mg/kg, ip for 5 days by hematoxylin and eosin staining based fluorescence microscopic analysis. The format is functional, organism-based.
The test system of series [17] is Mus musculus. The series is described as follows: Antioxidant Activity in C57BL/6 mouse model of CS-induced pulmonary injury assessed as decrease in MDA level in lungs at 2 to 4 mg/kg, ip for 5 days. Format: functional, organism-based.
In series [18] the test system is Mus musculus. As to the kind of experiment: Antiinflammatory activity in C57BL/6 mouse model of CS-induced pulmonary injury assessed as reduction in IL-1beta protein expression in lungs at 2 to 4 mg/kg, ip for 5 days by ELISA. The format is functional, organism-based.
Series [19] concerns Mus musculus. The series is described as follows: Antiinflammatory activity in C57BL/6 mouse model of CS-induced pulmonary injury assessed as decrease in NFkappaB p65 protein expression in lungs at 2 to 4 mg/kg, ip for 5 days by immunoblot analysis. Format: functional, organism-based.

The source made the active and inactive calls. No cut-off for these calls is given here.

Regarding `CC1=C(C)C(=O)O[C@H]([C@](C)(O)[C@]2(O)CC[C@@]3(O)[C@@H]4C[C@H]5O[C@]56[C@@H](O)C=CC(=O)[C@]6(C)[C@H]4CC[C@]23C)C1`, the Activity result in series [1] is “Dose-dependent effect”; in [3], “Dose-dependent effect”; with BEAS-2B it was “Non-Toxic”; in [5] it was “Dose-dependent effect”. Moreover, the result (in series [2]; in series [4]; in series [7]; in [9]; with Mus musculus [16]; in the series with Mus musculus [17]) was Active. The result in the series on Mus musculus [18] and with Mus musculus [19] was Active. Also, the outcome in series [6], in [8], in series [10] and in [11] was inactive. For the same molecule, the inhibition result (in series [12]; in the series with RAW264.7 [13]; in the series with RAW264.7 [14]; in the series with RAW264.7 [15]) was “Active” in each case.
